Target: T1, human muscarinic acetylcholine M1 receptor (hM1 mAChR) (Homo sapiens, UniProt P11229)
T1 sequence (P11229 1-460): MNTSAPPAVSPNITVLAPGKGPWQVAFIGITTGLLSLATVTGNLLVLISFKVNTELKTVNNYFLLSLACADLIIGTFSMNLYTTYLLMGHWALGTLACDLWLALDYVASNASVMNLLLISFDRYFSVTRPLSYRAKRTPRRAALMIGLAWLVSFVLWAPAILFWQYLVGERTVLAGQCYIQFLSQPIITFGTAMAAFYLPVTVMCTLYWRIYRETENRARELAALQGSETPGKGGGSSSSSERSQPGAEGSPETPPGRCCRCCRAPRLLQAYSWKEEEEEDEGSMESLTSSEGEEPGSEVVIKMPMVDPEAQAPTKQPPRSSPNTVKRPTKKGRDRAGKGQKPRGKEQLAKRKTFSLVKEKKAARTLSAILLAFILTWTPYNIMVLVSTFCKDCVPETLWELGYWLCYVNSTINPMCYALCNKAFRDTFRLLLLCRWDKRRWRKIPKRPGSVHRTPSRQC
Assay: IP1 accumulation
Assay type: cell-based
Settings: vehicle-pretreated control; orthosteric agonist; […]°C, […] h, pH […]

## C[N+](C)(C)CC#CCN1CCCC1=O [Oxo-M]
  pEC50^a: 6.08 ± 0.13

Source: paper PMC7616191 (Molecular pharmacology, 2018)
